Assays:
Assay in all cases: relative viability (nuclei count vs DMSO), 5 days (fraction); higher = more cells survive
[1] = compound: CC1=C(C(=O)N2C=CSC2=N1)CCN3CCC(=C(C4=CC=CC=C4)C5=CC=C(C=C5)F)CC3 + CS(=O)(=O)N1CCN(Cc2cc3nc(-c4cccc5[nH]ncc45)nc(N4CCOCC4)c3s2)CC1 [Pictilisib] (partner 1 µM)
Procedure, shortened: (§1)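 Values are medians from duplicate plates. Each reflects relative viability, defined as the nuclei count of treated wells over that of vehicle wells. Lung cancer cell lines in 1536-well plates were pin-tool dosed one day after seeding with one drug alone or with a fixed anchor-drug dose plus five library-drug doses (not always all listed) in √10 steps, then fixed, stained and imaged at 4× after 5 days.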

[2] = compound: CC1=C(C(=O)N2C=CSC2=N1)CCN3CCC(=C(C4=CC=CC=C4)C5=CC=C(C=C5)F)CC3 + O=C(CCCCCCC(=O)Nc1ccccc1)NO [Vorinostat] (partner 1 µM)
Procedure, shortened: as §1

[3] = compound: CC1=C(C(=O)N2C=CSC2=N1)CCN3CCC(=C(C4=CC=CC=C4)C5=CC=C(C=C5)F)CC3 + NC(=O)Nc1cc(-c2cccc(F)c2)sc1C(=O)N[C@H]1CCCNC1 [AZD7762] (partner 0.2 µM)
Procedure, shortened: as §1

[4] = compound: CC1=C(C(=O)N2C=CSC2=N1)CCN3CCC(=C(C4=CC=CC=C4)C5=CC=C(C=C5)F)CC3 + COc1cc2c(Oc3ccc(NC(=O)C4(C(=O)Nc5ccc(F)cc5)CC4)cc3F)ccnc2cc1OCCCN1CCOCC1 [Foretinib] (partner 0.25 µM)
Procedure, shortened: as §1

Cell Line	relative viability ([1]; first compound 0.08 µM)	relative viability ([1]; first compound 0.253 µM)	relative viability ([1]; first compound 0.8 µM)	relative viability ([1]; first compound 2.53 µM)	relative viability ([1]; first compound 8 µM)	relative viability ([2]; first compound 0.08 µM)	relative viability ([2]; first compound 0.8 µM)	relative viability ([2]; first compound 2.53 µM)	relative viability ([2]; first compound 8 µM)	relative viability ([3]; first compound 0.08 µM)	relative viability ([3]; first compound 0.8 µM)	relative viability ([3]; first compound 2.53 µM)	relative viability ([3]; first compound 8 µM)	relative viability ([4]; first compound 0.08 µM)	relative viability ([4]; first compound 0.253 µM)	relative viability ([4]; first compound 0.8 µM)	relative viability ([4]; first compound 2.53 µM)	relative viability ([4]; first compound 8 µM)	relative viability ([2]; first compound 0.253 µM)	relative viability ([3]; first compound 0.253 µM)
PC-3 [JPC-3]	0.78	0.746	0.72	0.765	0.711	0.746	0.748	0.879	0.666	0.768	0.815	0.78	0.736	1.01	0.885	1.05	1.17	0.93		
201T	0.647	0.779	0.632	0.712	0.808	1.07	1.02	1.01	0.595	0.718	0.579	0.621	0.586	1.1	1.26	1.16	1.25	0.864	0.93	0.513
EPLC-272H		0.332	0.259	0.306	0.359	0.41	0.444	0.505	0.474	0.45	0.182	0.211	0.179	0.658	0.622	0.657	0.677	0.576		0.198
NCI-H441		0.519	0.464	0.563	0.366	0.998	0.765	1.05	0.61	0.859	1.23	1.07	0.671	1.07	0.968	1.05	0.976	0.84	0.628	1.12
NCI-H1651	0.621	0.676	0.51	0.684	0.495	0.552	0.557	0.616	0.452	0.438	0.472	0.467	0.304	0.747	0.884	0.912	0.822	0.558	0.547	0.467
HCC-366	0.128	0.152	0.194	0.129	0.121	0.344	0.332	0.403	0.256	0.302	0.25	0.23	0.211	0.935	1	1.01	1	0.662	0.405	0.317
LK-2	0.611	0.66	0.605	0.451	0.539	0.266	0.333	0.319	0.199	0.496	0.56	0.349	0.289	1.35	1.07	1.18	1.33	0.794	0.233	0.304
NCI-H1944	0.369	0.336	0.343	0.333	0.37	0.442	0.499	0.54	0.377	0.482	0.461	0.469	0.43	0.8	1.12	0.891	0.862	0.539	0.502	0.491
NCI-H647	0.552	0.385	0.381	0.498	0.312	0.681	0.603	0.514	0.333	0.558	0.37	0.426	0.234	1.03	1.23	1.24	1.2	0.65	0.574	0.449
NCI-H2347	0.417	0.691	0.764	0.394	0.614	0.538	0.573	0.579	0.453	0.603	0.773	0.895	0.553		0.835	0.523	1.16	0.837	0.603	0.692
H3255	0.448	0.389	0.515	0.537	0.4	0.821	0.841	0.836	0.666	0.832	0.907	0.955	0.72	0.818	0.891	0.734	0.886	0.707	0.922	0.929
NCI-H1755	0.387	0.482	0.42	0.423	0.37	0.704	0.789	0.759	0.571	0.465	0.434	0.508	0.418	0.907	0.888	0.892	0.912	0.762	0.71	0.446
RERF-LC-KJ	0.627	0.495	0.511	0.497	0.487	0.617	0.793	0.716	0.48	0.636	1.15	0.945	0.584	0.794	0.92	0.917	0.846	0.561	0.658	0.936
HCC-15	0.714	0.752	0.714	0.773	0.587	0.927	0.869	0.788	0.606	1.18	1.28	1.15	1.09	1.06	0.995	1.16	1.07	0.774	0.96	1.43
NCI-H650		0.763	0.786	0.99	0.71	0.731	0.482	0.486	0.369	1.07	0.94	1.04	0.805	0.994	1.11	1.13	1.17	1.06	0.395	0.998
LU99A	0.377	0.316	0.342	0.389	0.311	0.433	0.381	0.525	0.207	0.345	0.403	0.398	0.294	0.793	0.771	0.832	0.822	0.802	0.418	0.367

Cell Line	relative viability ([1]; first compound 0.08 µM)	relative viability ([1]; first compound 0.253 µM)	relative viability ([1]; first compound 0.8 µM)	relative viability ([1]; first compound 2.53 µM)	relative viability ([1]; first compound 8 µM)	relative viability ([2]; first compound 0.08 µM)	relative viability ([2]; first compound 0.8 µM)	relative viability ([2]; first compound 2.53 µM)	relative viability ([2]; first compound 8 µM)	relative viability ([3]; first compound 0.08 µM)	relative viability ([3]; first compound 0.8 µM)	relative viability ([3]; first compound 2.53 µM)	relative viability ([3]; first compound 8 µM)	relative viability ([4]; first compound 0.08 µM)	relative viability ([4]; first compound 0.253 µM)	relative viability ([4]; first compound 0.8 µM)	relative viability ([4]; first compound 2.53 µM)	relative viability ([4]; first compound 8 µM)	relative viability ([2]; first compound 0.253 µM)	relative viability ([3]; first compound 0.253 µM)
A-427	0.801	0.86	0.676	0.83	0.737	0.878	0.86	0.91	0.748	0.675	0.67	0.633	0.674	1.08	1.1	1.16	1.15	1	0.824	0.678
NCI-H727	0.352	0.351	0.35	0.354	0.423	1.08	1.16	1.13	1.07	0.561	0.715	0.575	0.553	0.846	1.01	0.89	0.921	0.624	1.3	0.744
HCC-827	0.829	1.07	1.13	0.924	0.645	0.831	0.797	0.953	0.688	0.16	0.236	0.224	0.209	1.11	1.08	1.05	1.13	1.01	0.655	0.214
NCI-H2087	0.769	0.868	0.835	0.997	0.554	0.865	0.859	0.625	0.485	1.21	1.58	1.24	0.506	0.989	1.2	1.17	1.24	0.528	0.591	1.36
LXF-289	0.824	0.953	0.804	0.674	0.724	0.527	0.75	0.738	0.613	0.789	1.14	1.13	0.515	1	1.01	1.01	1.01	0.879	0.813	1.22
NCI-H1915	1.21	1.01	0.969	1.04	0.835	0.554	0.538	0.524	0.383	0.714	0.662	0.75	0.518	1.1	0.964	1.1	1.18	0.535	0.584	0.802
NCI-H1993	0.755		0.766	0.727	0.73	0.87	0.885	0.92	0.756	0.501	0.726	0.73	0.63	0.701	0.677	0.757	0.915	0.682	0.715	0.632
HARA	0.527	0.423	0.383	0.202	0.289	0.477	0.513	0.665	0.372	0.371	0.281	0.296	0.303	1.19	0.98	0.956	0.942	0.649	0.545	0.347
NCI-H23	0.473	0.39	0.443	0.497	0.374	0.665	0.473	0.572	0.32	0.279	0.234	0.248	0.229	0.945	0.902	0.924	1.02	0.795	0.564	0.269
BEN	0.521	0.602	0.562	0.516	0.505	0.548	0.523	0.682	0.495	0.732	0.638	0.638	0.651	0.708	0.74	0.639	0.677	0.595	0.589	0.677
ABC-1	0.817	0.973	0.827	0.684	0.483	1.14	0.938	0.949	0.784	0.751	0.791	0.766	0.677	1.03	1.18	0.958	0.869	0.635		0.746
HCC-78	0.216	0.206	0.226	0.212	0.273	0.385	0.546	0.424	0.476	0.691	0.58	0.662	0.567	0.547	0.522	0.513	0.534	0.522	0.458	0.71
NCI-H2170	0.295	0.287	0.256	0.304	0.338	0.638	0.739	0.715	0.463	0.696	0.932	0.76	0.462	0.874	1.03	1.11	1.06	0.674	0.791	0.884
LCLC-97TM1	0.208	0.297	0.217	0.182	0.167	0.521	0.754	0.734	0.415	0.348	0.288	0.285	0.228	1.01	1.01	1.02	0.92	0.958	0.831	0.246
NCI-H2126	0.493	0.509	0.477	0.516	0.579	0.794	0.784	0.802	0.631	1.07	1.03	1.04	0.705	1.08	1.1	1.19	1.22	0.927	0.852	0.961
NCI-H358	0.301	0.338	0.326	0.38	0.305	0.687	0.808	0.885	0.441	0.555		0.462	0.477	0.568	0.665	0.695	0.87	0.483	0.753	0.487
